The source of these data is patent US9221756B2, “Pyrrole derivatives” (priority 2011, dated 2015).

The target of the experiment is pneumolysin (Streptococcus pneumoniae serotype 2, UniProt Q04IN8). Put plainly: Inhibition of the haemolytic activity of pneumolysin (sheep erythrocytes). It counts as cell-based.
Where [1] appears, read: IC50, inhibition of pneumolysin-induced haemolysis of sheep erythrocytes, class symbols of Table 1.
The mark [2] stands for this setting: IC50, inhibition of pneumolysin-induced haemolysis of sheep erythrocytes, specific values.

Like-named read-outs stand apart in the source and are kept apart here. A value given as a limit tells only on which side of the number the result lay.

Chain of pneumolysin (Q04IN8 whole entry): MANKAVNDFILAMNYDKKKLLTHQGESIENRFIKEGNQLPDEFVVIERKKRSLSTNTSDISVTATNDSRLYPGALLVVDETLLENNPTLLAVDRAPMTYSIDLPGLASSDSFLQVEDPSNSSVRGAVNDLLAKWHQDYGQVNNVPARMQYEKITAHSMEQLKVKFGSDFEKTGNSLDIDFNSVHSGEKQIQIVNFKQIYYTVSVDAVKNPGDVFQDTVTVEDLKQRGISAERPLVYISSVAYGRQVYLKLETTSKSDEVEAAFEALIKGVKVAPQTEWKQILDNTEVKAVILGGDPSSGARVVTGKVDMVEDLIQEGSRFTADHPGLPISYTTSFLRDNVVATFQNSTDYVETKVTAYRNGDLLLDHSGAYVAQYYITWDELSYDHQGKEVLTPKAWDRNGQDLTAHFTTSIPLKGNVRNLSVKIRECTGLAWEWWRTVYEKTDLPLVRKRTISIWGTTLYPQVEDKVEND

For the compound `CCOc1ccc(-n2c(C(=O)N(C)C)c(OCc3ccccc3)c(OCc3ccccc3)c2C(=O)N(C)C)cc1` [UL1-052, 3,4-bis(benzyloxy)-1-(4-ethoxyphenyl)-N^2,N^2,N^5,N^5-tetramethyl-1H-pyrrole-2,5-dicarboxamide], the IC50 (in general, the concentration that inhibits the measured activity by half) under setting [1] was less than 10 µM.

In turn, `CCOC(=O)c1c(O)c(O)c(-c2ccccn2)n1-c1ccc(OC)cc1` [UL1-083, ethyl 3,4-dihydroxy-1-(4-methoxyphenyl)-5-(pyridin-2-yl)-1H-pyrrole-2-carboxylate] came in with a concentration for half-maximal inhibition (IC50) under setting [1] of less than 10 µM.

For the compound `CC(C)N(C(=O)c1c(O)c(O)c(C(=O)N(C(C)C)C(C)C)n1-c1ccc(F)cc1)C(C)C` [UL1-017, 1-(4-fluorophenyl)-3,4-dihydroxy-N^2,N^2,N^5,N^5-tetraisopropyl-1H-pyrrole-2,5-dicarboxamide], the IC50 under setting [1] is less than 10 µM.

For the compound `CCOC(=O)c1c(OCc2ccccc2)c(OCc2ccccc2)c(C#N)n1-c1ccc(F)cc1` [UL1-060, ethyl 3,4-bis(benzyloxy)-5-cyano-1-(4-fluorophenyl)-1H-pyrrole-2-carboxylate], under setting [1], the IC50 lay within 20 to 60 µM.

Under setting [1], `COc1ccc(-n2c(C(=O)N3CCN(C(C)=O)CC3)c(O)c(O)c2C(=O)N2CCN(C(C)=O)CC2)cc1` [UL1-033, 1,1′-(4,4′-(3,4-dihydroxy-1-(4-methoxyphenyl)-1H-pyrrole-2,5-dicarbonyl)bis(piperazine-4,1-diyl))diethanone] returned an IC50 of less than 10 µM.

As to `COc1ccc(-n2c(C(=O)N(C)C)c(OCc3ccccc3)c(OCc3ccccc3)c2C(=O)N(C)C)cc1` [UL1-047, 3,4-bis(benzyloxy)-1-(4-methoxyphenyl)-N^2,N^2,N^5,N^5-tetramethyl-1H-pyrrole-2,5-dicarboxamide], the 50% inhibitory concentration (IC50) under setting [1] was in the range of 10 to 20 µM.

With `COc1ccc(-n2c(C(=O)N3CCN(C(=O)OC(C)(C)C)CC3)c(OCc3ccccc3)c(OCc3ccccc3)c2C(=O)N2CCN(C(=O)OC(C)(C)C)CC2)cc1` [UL1-048, di-tert-butyl 4,4′-(3,4-bis(benzyloxy)-1-(4-methoxyphenyl)-1H-pyrrole-2,5-dicarbonyl)bis(piperazine-1-carboxylate)], the half-inhibitory concentration (IC50) under setting [1] was less than 10 µM.

Under setting [1], `COc1ccc(-n2c(C(=O)N(C)C)c(OC(=O)C(C)(C)COCCOCCOP(=O)(O)O)c(OC(=O)C(C)(C)COCCOCCOP(=O)(O)O)c2C(=O)N(C)C)cc1` [UL1-121, 2,5-bis(dimethylcarbamoyl)-1-(4-methoxyphenyl)-1H-pyrrole-3,4-diyl bis(2,2-dimethyl-3-(2-(2-(phosphonooxy)ethoxy)ethoxy)propanoate)] gave an IC50 of 10 to 20 µM.

`CCOC(=O)c1c(O)c(OCC(N)=O)c(C(=O)OCC)n1-c1ccc(OC)cc1` [UL2-031, diethyl 3-(2-amino-2-oxoethoxy)-4-hydroxy-1-(4-methoxyphenyl)-1H-pyrrole-2,5-dicarboxylate] yielded a concentration for half-maximal inhibition (IC50) under setting [1] of 20 to 60 µM.

Regarding `CCOC(=O)c1c(OC(=O)C(C)(C)COCCOC)c(OC(=O)C(C)(C)COCCOC)c(C(=O)N(C)C)n1-c1ccc(OC)cc1` [UL1-108, 2-(dimethylcarbamoyl)-5-(ethoxycarbonyl)-1-(4-methoxyphenyl)-1H-pyrrole-3,4-diyl bis(3-(2-methoxyethoxy)-2,2-dimethylpropanoate)], the IC50 under setting [1] lay in the range of 10 to 20 µM.

Take `COc1ccc(-n2c(C(=O)N3CCCCC3)c(OCc3ccccc3)c(OCc3ccccc3)c2C(=O)N2CCCCC2)cc1` [UL1-049, (3,4-bis(benzyloxy)-1-(4-methoxyphenyl)-1H-pyrrole-2,5-diyl)bis(piperidin-1-ylmethanone)]: the IC50 is, setting by setting: under setting [1], less than 10 µM; under setting [2], 0.479 µM.

Take `CCCCN(CCCC)C(=O)c1c(O)c(O)c(C(=O)OCC)n1-c1ccc(OC)cc1` [UL1-038, ethyl 5-(dibutylcarbamoyl)-3,4-dihydroxy-1-(4-methoxyphenyl)-1H-pyrrole-2-carboxylate]: under setting [1], the concentration for half-maximal inhibition (IC50) was less than 10 µM.

`CCOC(=O)c1c(O)c(O)c(C(=O)N(C)C)n1-c1ccc(OCCOCCOCCOC)cc1` [UL1-095, ethyl 5-(dimethylcarbamoyl)-3,4-dihydroxy-1-(4-(2-(2-(2-methoxyethoxy)ethoxy)ethoxy)phenyl)-1H-pyrrole-2-carboxylate] gave an IC50 under setting [1] of less than 10 µM.

The compound `COc1ccc(-n2c(C(=O)OC(C)C)c(O)c(O)c2C(=O)OC(C)C)cc1` [UL2-020, diisopropyl 3,4-dihydroxy-1-(4-methoxyphenyl)-1H-pyrrole-2,5-dicarboxylate] registered an IC50 under setting [1] of less than 10 µM.

In the case of `CCOC(=O)c1c(OCc2ccccc2)c(OCc2ccccc2)c(-c2nnc(CC)o2)n1-c1ccc(OC)cc1` [UL1-088, ethyl 3,4-bis(benzyloxy)-5-(5-ethyl-1,3,4-oxadiazol-2-yl)-1-(4-methoxyphenyl)-1H-pyrrole-2-carboxylate], the 50% inhibitory concentration (IC50) under setting [1] lay in the range of 10 to 20 µM.

`COc1ccc(-n2c(C(=O)OCC(C)(C)C)c(O)c(O)c2C(=O)N(C)C)cc1` [UL1-112, neopentyl 5-(dimethylcarbamoyl)-3,4-dihydroxy-1-(4-methoxyphenyl)-1H-pyrrole-2-carboxylate] displayed an IC50 under setting [1] of less than 10 µM.

In the case of `COc1ccc(-n2c(C(=O)OC(C)(C)C)c(O)c(O)c2C(=O)N(C)C)cc1` [UL1-036, tert-butyl 5-(dimethylcarbamoyl)-3,4-dihydroxy-1-(4-methoxyphenyl)-1H-pyrrole-2-carboxylate], the IC50 under setting [1] is less than 10 µM.

Consider `COc1ccc(-n2c(C(=O)OC3CCCC3)c(O)c(O)c2C(=O)N(C)C)cc1` [UL1-116, cyclopentyl 5-(dimethylcarbamoyl)-3,4-dihydroxy-1-(4-methoxyphenyl)-1H-pyrrole-2-carboxylate], for which the IC50 was less than 10 µM under setting [1] and 0.18 µM under setting [2].

Compound `COc1ccc(-n2c(C(=O)N3CCN(C(=O)OC(C)(C)C)CC3)c(O)c(O)c2C(=O)N2CCN(C(=O)OC(C)(C)C)CC2)cc1` [UL1-015, di-tert-butyl 4,4′-(3,4-dihydroxy-1-(4-methoxyphenyl)-1H-pyrrole-2,5-dicarbonyl)bis(piperazine-1-carboxylate)] returned a half-inhibitory concentration (IC50) under setting [1] of less than 10 µM.

As for `COc1ccc(-n2c(C(=O)N3CCCCC3)c(O)c(O)c2C(=O)N2CCCCC2)cc1` [UL1-018, (3,4-dihydroxy-1-(4-methoxyphenyl)-1H-pyrrole-2,5-diyl)bis(piperidin-1-ylmethanone)], under setting [1], the IC50 was less than 10 µM.

On to `COc1ccc(-n2c(C#N)c(O)c(O)c2C#N)cc1` [UL1-034, 3,4-dihydroxy-1-(4-methoxyphenyl)-1H-pyrrole-2,5-dicarbonitrile], for which the IC50 under setting [1] was 20 to 60 µM.

On to `CCOC(=O)c1c(O)c(O)c(C(=O)OCC)n1-c1ccc(C#N)cc1` [UL2-024, diethyl 1-(4-cyanophenyl)-3,4-dihydroxy-1H-pyrrole-2,5-dicarboxylate], for which the IC50 under setting [1] was in the range of 10 to 20 µM.

Compound `CC(=O)N1CCN(C(=O)c2c(O)c(O)c(C(=O)N3CCN(C(C)=O)CC3)n2-c2ccc(F)cc2)CC1` [UL1-010, 1,1′-(4,4′-(1-(4-fluorophenyl)-3,4-dihydroxy-1H-pyrrole-2,5-dicarbonyl)bis(piperazine-4,1-diyl))diethanone] returned an IC50 under setting [1] of less than 10 µM.

Compound `COc1ccc(-n2c(C(=O)N3CCNCC3)c(O)c(O)c2C(=O)N2CCNCC2)cc1` [UL1-016, (3,4-dihydroxy-1-(4-methoxyphenyl)-1H-pyrrole-2,5-diyl)bis(piperazin-1-ylmethanone)] displayed a half-inhibitory concentration (IC50) under setting [1] of less than 10 µM.

Consider `CCOC(=O)c1c(O)c(O)c(C(N)=O)n1-c1ccc(OC)cc1` [UL1-080, ethyl 5-carbamoyl-3,4-dihydroxy-1-(4-methoxyphenyl)-1H-pyrrole-2-carboxylate], for which the concentration for half-maximal inhibition (IC50) under setting [1] was less than 10 µM.

`COc1ccc(-n2c(C(=O)N(C)C)c(OCc3ccccc3)c(OCc3ccccc3)c2C(=O)N2CCOCC2)cc1` [UL1-058, 3,4-bis(benzyloxy)-1-(4-methoxyphenyl)-N,N-dimethyl-5-(morpholine-4-carbonyl)-1H-pyrrole-2-carboxamide] came in with an IC50 under setting [1] of 20 to 60 µM.

Take `CCOC(=O)c1c(O)c(OP(=O)(OCC)OCC)c(C(=O)N(C)C)n1-c1ccc(OC)cc1` [UL1-097, ethyl 4-((diethoxyphosphoryl)oxy)-5-(dimethylcarbamoyl)-3-hydroxy-1-(4-methoxyphenyl)-1H-pyrrole-2-carboxylate]: under “inhibition of pneumolysin-induced haemolysis of sheep erythrocytes, class symbols of Table 1, read-out: IC50”, the half-inhibitory concentration (IC50) is greater than 60 µM.

Regarding `CN(C)C(=O)c1ccc(-n2c(C(=O)N(C)C)c(O)c(O)c2C(=O)N(C)C)cc1` [UL1-029, 1-(4-(dimethylcarbamoyl)phenyl)-3,4-dihydroxy-N^2,N^2,N^5,N^5-tetramethyl-1H-pyrrole-2,5-dicarboxamide], the IC50 under setting [1] was less than 10 µM.

Turning to `CCOC(=O)c1c(O)c(O)c(C(=O)OCC)n1-c1cc(OC)c(OC)c(OC)c1` [UL2-014, diethyl 3,4-dihydroxy-1-(3,4,5-trimethoxyphenyl)-1H-pyrrole-2,5-dicarboxylate], under setting [1], the 50% inhibitory concentration (IC50) is less than 10 µM.

Compound `COc1ccc(-n2c(C(=O)N(C)C)c(OC(=O)C3CCNCC3)c(OC(=O)C3CCNCC3)c2C(=O)N(C)C)cc1` [UL1-123, 2,5-bis(dimethylcarbamoyl)-1-(4-methoxyphenyl)-1H-pyrrole-3,4-diyl bis(piperidine-4-carboxylate)] registered an IC50 under setting [1] of less than 10 µM.

`CCOC(=O)c1c(OC(=O)CCOC)c(OC(=O)CCOC)c(C(=O)N(C)C)n1-c1ccc(OC)cc1` [UL1-104, 2-(dimethylcarbamoyl)-5-(ethoxycarbonyl)-1-(4-methoxyphenyl)-1H-pyrrole-3,4-diyl bis(3-methoxypropanoate)] returned an IC50 under setting [1] of less than 10 µM.

Under setting [1], `COc1ccc(-n2c(C(=O)N3CCN(C(C)=O)CC3)c(OCc3ccccc3)c(OCc3ccccc3)c2C(=O)N2CCN(C(C)=O)CC2)cc1` [UL1-059, 1,1′-(4,4′-(3,4-bis(benzyloxy)-1-(4-methoxyphenyl)-1H-pyrrole-2,5-dicarbonyl)bis(piperazine-4,1-diyl))diethanone] showed a half-inhibitory concentration (IC50) of 20 to 60 µM.

Take `CCOC(=O)c1c(O)c(O)c(C(=O)N(CC)CC)n1-c1ccc(OC)cc1` [UL1-041, ethyl 5-(diethylcarbamoyl)-3,4-dihydroxy-1-(4-methoxyphenyl)-1H-pyrrole-2-carboxylate]: the half-maximal inhibitory concentration (IC50) under setting [1] was less than 10 µM.

`COc1ccc(-n2c(C(=O)N(C)C)c(O)c(O)c2C(=O)N2CCCCC2)cc1` [UL1-025, 3,4-dihydroxy-1-(4-methoxyphenyl)-N,N-dimethyl-5-(piperidine-1-carbonyl)-1H-pyrrole-2-carboxamide]: the IC50 under setting [1] was less than 10 µM.
